Laboratory results from publication PMC7335011 (The Journal of General Physiology, 2020).

Molecular target: MthK (Methanothermobacter thermautotrophicus, UniProt O27564)
Assay type: biochemical

Row | IC50 [µM] | SMILES
1 | 860 ± 20 | NCCCCNCCCN [SPD^3+]
2 | 77 ± 6 | NCCCNCCCCNCCCN [SPM^4+]
